{"source": "patent US10947285B2", "about": "“Compounds, compositions and uses thereof for improvement of bone disorders” (Amolyt Pharma, priority 2017, dated 2021)", "key": {"[1]": {"tested_on": "ovariectomized (OVX) rats", "assay": "Bone formation in ovariectomized rat, μCT of proximal tibia", "assay_type": "in vivo, Sprague-Dawley rats", "conditions": "6 weeks", "experimental": "(§1) Effects on bone of three doses of HBD1 (3-11) with stearic acid at the N-terminus (C18:0) analog were tested in vivo in ovariectomized (OVX) rats, a recognized model for human osteoporosis, in particular postmenopausal osteoporosis. Each group included ten female Sprague-Dawley rats that were four months of age at the beginning of the in-life phase of the study. Treatment started six weeks after OVX surgery and lasted for six additional weeks. Groups were randomized before surgery according to body weight and tibial metaphysis Bone Mineral Density (BMD) as measured by peripheral quantitative computed tomography (pQCT) from Norland Stratec XCT Research SA equipment (Norland Stratec Medizintechnik, Birkenfeld, Germany).\n(§2) The peptide was reconstituted in saline solution (0.9% NaCl) and administered subcutaneously twice a day at the doses of 0.8 mg/kg (low), 1.6 mg/kg (med) or 3.2 mg/kg (high) in a volume of 1 mL/kg. The control group was administered twice a day with saline by s.c. administration. Rats were weighed once a week and the volume of dosing solution administered was adjusted accordingly.\nHigh-resolution micro-computed tomography (μCT) measurements using Sky Scan 1072 or 1172 High Resolution Scanner (Bruker microCT, Kontich, Belgium) were performed ex vivo in right proximal tibia at the end of the treatment period for measuring bone volume, bone cross-sectional dimensions and bone microarchitecture. FIGS. 5A, 5B and 5C show the percent increase from OVX animals HBD1 (3-11) with stearic acid at the N-terminus (C18:0) groups for following selected parameters: Bone Volume Fraction (BV/TV; %), Trabecular number (Tb.N; mm^−1) and Connectivity Density (Conn.D; mm^−3)."}, "[2]": {"assay": "Pharmacokinetic in Göttingen minipigs after intravenous and subcutaneous injection", "assay_type": "in vivo", "conditions": "0.5 μmol/kg", "experimental": "The peptide was reconstituted in saline (0.9% NaCl). Three Göttingen minipigs (approximately 8-10 months of age) were used per group. Intravenous doses were administered into an ear vein at the dose of 0.5 μmol net peptide/kg. Subcutaneous doses were administered into the right flank of each animal, also at the dose of 0.5 μmol net peptide/kg. Following dosing, serial whole blood samples (ca. 0.25 mL) were collected from a jugular vein into K2EDTA treated containers. Following each blood sample collection, samples were placed into a cooling block at 4° C. Samples were collected prior to dosing then at 5 and 30 minutes then 1, 2, 4, 8, 25, 48, 72 and 96 hours post dose for intravenous injection and at 15 and 30 minutes then 1, 2, 4, 8, 25, 48, 72 and 96 hours post dose for subcutaneous injection.\nBlood samples were centrifuged at 10000×g for 2 minutes at 4° C. and resultant plasma aspirated off into clean fully, labelled tubes. Plasma samples were snap frozen following aspiration then stored at −80° C. Peptide extraction and analysis were performed as described in Example 9. The limit of quantification of this method is 0.0015 nmol/mL. All values below this limit of quantification are considered as zero."}, "[3]": {"tested_on": "ovariectomized (OVX) rats", "assay": "Bone biomechanical properties in ovariectomized rat (lumbar vertebrae compression, femoral neck cantilever bending)", "assay_type": "in vivo, Sprague-Dawley rats", "conditions": "3.2 mg/kg BID s.c., 6 weeks, vs OVX vehicle", "experimental": "as §1, §2\nBone biomechanical properties were determined by compression test using Instron 3343 biomechanical testing system (Instron, Norwood, Mass., USA). […]"}, "[4]": {"assay": "Pharmacokinetic of HBD1 fragments in male Sprague Dawley rats after intravenous and subcutaneous injection", "assay_type": "in vivo", "conditions": "1 μmol net peptide/kg; for quantifiable exposure after administration by either dose route: iv and sc", "experimental": "The peptides were reconstituted in saline (0.9% NaCl). Three male Sprague Dawley rats were used per group. Intravenous doses were administered into a lateral tail vein at the dose of 1 μmol net peptide/kg. Subcutaneous doses were administered into the right flank of each animal, also at the dose of 1 μmol net peptide/kg. Following dosing, serial whole blood samples (ca. 0.25 mL) were collected from a lateral tail vein into K2EDTA treated containers. Following each blood sample collection, samples were placed into a cooling block at 4° C. Samples were collected prior to dosing then at 2, 5, 15 and 30 minutes then 1, 2, 4, 6 and 8 and 24 hours post dose for intravenous injection and at 15 and 30 minutes then 1, 2, 4, 6, 8 and 24 hours post dose for subcutaneous injection.\nBlood samples were centrifuged at 10000×g for 2 minutes at 4° C. and resultant plasma aspirated off into clean fully, labelled tubes. Plasma samples were snap frozen following aspiration then stored at −80° C. Peptides were extracted and analyzed as described in Example 9. The limits of quantification of these methods were 0.001 nmol/mL for cyclic HBD1 (3-11) and HBD1 (3-11) and 0.003 nmol/mL for HBD1 (1-13). All values below these limits of quantification were considered as zero."}, "[5]": {"assay": "Stability of HBD1 fragments in human plasma", "assay_type": "in vitro ADME", "conditions": "24 and 48 hours incubation at 37° C.", "experimental": "The peptides were spiked at 1 μg/mL (peptide backbone) into pre-warmed human K2EDTA plasma (at 37° C.) and incubated for up to 48 hours. Aliquots of plasma were extracted at specific time points (0, 24 and 48 hours post spike). Extraction was performed with acetonitrile:water (75:25, v/v) for HBD1 (1-13), HBD1 (1-13) with palmitic acid at the N-terminus (C16:0), HBD1 (3-11) with palmitic acid at the N-terminus (C16:0)) and HBD1 (3-11) with stearic acid at the N-terminus (C18:0) or with acetonitrile:water:formic acid (75:25:0.1, v/v/v) for HBD1 (3-11) and cyclic HBD1 (3-11). The peptides were analyzed using developed LC (C18 reverse phase column)—positive ion electrospray MS/MS methods specific to each peptide. The peak area at each time point was expressed as a percentage of the value obtained for the t=0 minutes time point."}, "[6]": {"conditions": "OVX rats, s.c. twice a day 0.8, 1.6 or 3.2 mg/kg, vs OVX vehicle, dose-dependent"}}, "note": "Residues, ends and D or L forms follow the SMILES beside them. No end group written: not given here. *: point of attachment. Stearoyl = CCCCCCCCCCCCCCCCCC(=O)*"}
{"molecule": "CCCCCCCCCCCCCCCCCC(=O)N[C@@H](Cc1c[nH]cn1)C(=O)N[C@@H](CC(C)C)C(=O)NCC(=O)N[C@@H](CC(C)C)C(=O)N[C@@H](CCC(=O)O)C(=O)N[C@@H](CCC(=O)O)C(=O)N1CCC[C@H]1C(=O)N[C@@H](CCCCN)C(=O)N[C@@H](CCCCN)C(=O)O", "note": "[SEQ ID NO: 73, C18:0-HLGLEEPKK] (Stearoyl-HLGLEEPKK-OH; C-terminus assumed)", "values": [{"measurement": "effect on bone in ovariectomized rat", "setting": "[1]; OVX Sprague-Dawley rats, s.c. twice a day, 0.8, 1.6 or 3.2 mg/kg", "result": "has anabolic effect on bone"}, {"measurement": "connectivity density (Conn.D) at tibial metaphysis", "setting": "[1]; [6]", "result": "increased"}, {"measurement": "percent bone volume fraction (BV/TV) at tibial metaphysis", "setting": "[1]; [6]", "result": "increased"}, {"measurement": "trabecular number (Tb.N) at tibial metaphysis", "setting": "[1]; [6]", "result": "increased"}, {"measurement": "duration of exposure after subcutaneous administration", "setting": "[2]", "result": "up to 25 hours"}, {"measurement": "bone strength (biomechanical properties of lumbar vertebrae and femoral neck)", "setting": "[3]", "result": "increased bone strength"}]}
{"molecule": "CC(C)C[C@@H]1NC(=O)CNC(=O)[C@H](CC(C)C)NC(=O)[C@H](Cc2c[nH]cn2)NC(=O)[C@H](CCCCN)NC(=O)[C@H](CCCCN)NC(=O)[C@@H]2CCCN2C(=O)[C@H](CCC(=O)O)NC(=O)[C@H](CCC(=O)O)NC1=O", "note": "[SEQ ID NO: 77, Cyclic (HLGLEEPKK)] (cyclo(EEPKKHLGL))", "values": [{"measurement": "Tlast (last time point with detectable peptide)", "setting": "[4]; iv, listed as Cyclic HBD1 (3-11)", "result": 8, "unit": "h"}, {"measurement": "Tlast (last time point with detectable peptide)", "setting": "[4]; sc, listed as Cyclic HBD1 (3-11)", "result": 4, "unit": "h"}, {"measurement": "Tlast (last time point with detectable peptide)", "setting": "[4]; sc, listed as cyclic HBD1 (3-11)", "result": "≤ 4", "unit": "h"}]}
{"molecule": "HLGLEEPKK [SEQ ID NO: 10, HLGLEEPKK]", "values": [{"measurement": "stability in human plasma (in words)", "setting": "[5]", "result": "very stable in human plasma"}, {"measurement": "quantifiable exposure after administration by either dose route", "setting": "[4]", "result": "no quantifiable exposure"}]}
{"molecule": "KHHLGLEEPKKLR [SEQ ID NO: 1, KHHLGLEEPKKLR, reference compound]", "values": [{"measurement": "stability in human plasma (in words)", "setting": "[5]", "result": "markedly degraded in human plasma"}, {"measurement": "quantifiable exposure after administration by either dose route", "setting": "[4]", "result": "no quantifiable exposure"}]}
